{"source": "patent US11286278B2", "about": "“DPEP-1 binding agents and methods of use” (Arch Biopartners, Inc., priority 2018, dated 2022)", "key": {"[1]": {"system": "monocyte adhesion in kidney", "assay": "Endotoxemia induced kidney inflammation, monocyte adhesion by multiphoton microscopy", "type": "in vivo, mouse", "conditions": "LysM gfp/gfp mice, LPS O111:B4 5 mg/kg i.v., 4 hours post LPS, peptide pretreatment", "experimental": "HEK293T cells were transfected with pcDNA vector containing human DPEP1 via Lipofectamine 2000 as per manufacturer protocol. Transfected cells were positively selected for using geneticin resistance and subcloned to generate stably transfected DPEP1 clones. Human renal tubular epithelial cells (hTEC) were isolated and cultured from human kidney nephrectomies. For immunocytochemistry, cells were cultured on collagen coated glass coverslips and fixed by 4% paraformaldehyde. Fixed cells were incubated with biotinylated LSALT peptides (50 μM) with various modifications (glycine linkers and/or amidation) for 1 hour at 37° C. before PBS washes. Bound biotinylated peptide was detected via secondary streptavidin fluorescent conjugate (30 min. incubation at 37° C.) and washed with PBS. […] Bound biotinylated peptide was detected via secondary streptavidin fluorescent conjugate (30 min. incubation at 37° C.) and washed with PBS. Peptide binding was analyzed via flow cytometer. […] Inflammation was quantified by manual counting of monocyte adhesion in single microscopy fields (n=3-6 fields/group; *:p=0.02).\nPlasma was separated for each sample and phosphoric acid added to stabilize peptide at each timepoint. Samples were assessed for LSALT and its' metabolites using LC/MS. […] Peptide binding was analyzed via flow cytometer. […]"}, "[2]": {"system": "LPS activated endothelial cells (HLMVEC)", "assay": "Static neutrophil adhesion assay to LPS activated endothelial cells (HLMVEC)", "type": "cell-based", "conditions": "human neutrophils, peptides at 100 uM or antibody at 13 ug/mL, LPS 1 ug/mL", "experimental": "(§1) In the top panel, 96-well nickel-coated plates were coated with nothing or his-tagged recombinant human DPEP1 (9 pmol/well in PBS, incubated for 1 hr at room temp), washed out 3× with PBS +0.05% Tween 20, and blocked for 1 hr at room temp with cell culture media (Cell Applications Inc. Cat#111-500). Freshly isolated human neutrophils were added to the wells at 5×10^4/mL, 100 uL volume, with the indicated peptides at 0.45uM. After 30 minutes at 37° C., wells were washed out 3× with PBS, and fixed with 3.7% formaldehyde in PBS. Two fields-of-view were photographed at 4× magnification and all the cells counted were recorded for each well, done in triplicate. In the middle panel, Cos1 cells were transfected with an empty vector (Mock) or a vector encoding wild type human DPEP1, two days prior. One day prior, transfected cells were plated at near confluency in a 24-well plate. On the day of the experiment, freshly isolated human neutrophils were added to the wells at 1×10^5/mL, 0.5mL volume, with the indicated peptides at 100 uM. After 30 minutes at 37° C., wells were washed out 3× with culture media, then fixed in 3.7% formaldehyde in PBS. Five fields-of-view were photographed at 20× magnification and averaged for each well, done in triplicate. In the bottom panel, two days prior, 24-well plates were coated with Attachment Factor Solution (Cell Applications Inc. Cat#123-500). […]"}, "DPEP1 [3]": {"target": "T1, DPEP1 (Homo sapiens, UniProt P16444)", "T1 sequence (P16444 17-385)": "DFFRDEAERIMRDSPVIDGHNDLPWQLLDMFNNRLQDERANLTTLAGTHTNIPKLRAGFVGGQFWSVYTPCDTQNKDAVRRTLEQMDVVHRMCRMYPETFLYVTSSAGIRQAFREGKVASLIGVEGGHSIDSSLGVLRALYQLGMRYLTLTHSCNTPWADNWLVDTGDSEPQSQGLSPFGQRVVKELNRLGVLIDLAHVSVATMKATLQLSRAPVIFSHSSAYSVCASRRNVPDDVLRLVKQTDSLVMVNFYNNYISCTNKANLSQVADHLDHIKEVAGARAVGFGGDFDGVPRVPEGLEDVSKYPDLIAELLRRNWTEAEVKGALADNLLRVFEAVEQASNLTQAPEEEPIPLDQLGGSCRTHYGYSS", "assay": "Phage hit binding to DPEP1 transfected Cos 1 cells", "parameters": "expressed in transfected cells; host or cells: Cos-1", "conditions": "10^8 pfu test phage, backscreen DPEP1 vs DPEP2", "experimental": "The Ph.D.-12 library was first subtracted 3× against DPEP2 (Creative Biomart; DPEP2-8611H) linked to agarose beads (10 uL of DPEP-agarose in 100 uL Luria broth and 4.5×10^9 pfu of Ph.D.-12 library), wherein the phage remaining in the supernatant was retained, and those that stuck to the subtraction beads were discarded. Second, the library was selected against DPEP1-agarose beads, wherein the phage remaining in the supernatant were discarded and those binding to DPEP1-agarose pellet were retained. The pellet was washed 3× in PBS, then transferred to phage host bacterial culture (ER 2738) to amplify the bound phage, which were then precipitated as per manufacturer's protocol. The recovered phage were then used to repeat the subtraction and selection steps. […] Each plaque was amplified separately in liquid bacterial host culture. […] DNA inserts were translated to the expected protein and sorted to assess the number of repeating sequences. […]\nIn FIG. 19B, Cos1 cells were transiently transfected with plasmids corresponding to human DPEP1 or DPEP2 (Lipofectamine 2000) 24 hrs prior to plating on collagen-coated (PureCol; Type I collagen from bovine tendon) coverslips. One day later cells were incubated with 10^8 pfu test phage, which were then detected by anti-M13 rabbit serum (in house) with anti-rabbit Alexa 568 secondary. […]"}, "[4]": {"system": "Cos 1 transfected cells (human DPEP1)", "assay": "Static neutrophil adhesion assay to DPEP1 transfected Cos1 cells", "type": "cell-based", "conditions": "human neutrophils, peptides at 100 uM, 30 minutes", "experimental": "as §1"}, "DPEP1 [5]": {"target": "T1, DPEP1", "assay": "Static neutrophil adhesion assay to recombinant hDPEP1", "type": "cell-based", "parameters": "purchased Creative Biomart DPEP1-77H", "conditions": "human neutrophils, peptides at 0.45uM, 30 minutes", "experimental": "as §1"}}, "data": [{"sequence": "GGGLSALTPSPSWLKYKAL [Peptide G2, tri-glycine LSALT (G2)]", "values": [{"measurement": "endotoxemia induced kidney inflammation (monocyte adhesion)", "setting": "[1]", "value": "can inhibit endotoxemia induced kidney inflammation"}]}, {"sequence": "HIPKSPIQIPII", "values": [{"measurement": "neutrophil adhesion to LPS activated endothelial cells (HLMVEC)", "setting": "[2]", "value": "able to inhibit neutrophil adhesion"}]}, {"sequence": "KHMHWHPPALNT", "values": [{"measurement": "phage binding to DPEP1 transfected cells", "setting": "DPEP1 [3]", "value": "brightest binding to DPEP1 transfected cells"}]}, {"sequence": "KHMHWHPPALNT [NeoH]", "values": [{"measurement": "neutrophil adhesion to DPEP1 transfected Cos 1 cells", "setting": "[4]", "value": "able to inhibit neutrophil adhesion"}, {"measurement": "neutrophil adhesion to LPS activated endothelial cells (HLMVEC)", "setting": "[2]", "value": "able to inhibit neutrophil adhesion"}, {"measurement": "neutrophil adhesion to recombinant hDPEP1", "setting": "DPEP1 [5]", "value": "able to inhibit neutrophil adhesion"}]}]}
